Tests used:
[1] = system: MDCK cells; assay: Cell scattering behavior assay; format: cell-based; design: key: − indicates that the compound failed to significantly promote cell scattering behavior; + indicates maximum potency at or above 100 nM; ++ indicates maximum potency at or above 10 nM; +++ indicates maximum potency at or above 1 nM; ++++ indicates maximum potency at or above 0.1 nM; settings: 5 ng/mL HGF, 24 hours, normalized particle count vs HGF alone
Experimental: MDCK cells were grown under normal conditions and observed to spontaneously form tight colonies as they proliferate. MDCK cells respond to HGF treatment by moving away from each other (scattering), which is quantified to assess the amount of HGF/MET activation in the cell population. In this experiment, MDCK cells were plated in a 96-well format, treated with HGF and exemplary compounds, fluorescently stained, imaged in large fields, and scattering behavior was quantified. Quantification was determined by analyzing the number of continuous groups of cells compared to the total stained area imaged (normalized particle counts).
MDCK cells were plated at low density in black-walled imaging plates and allowed to attach overnight at 37° C. and 5% CO2 in DMEM+10% FBS. Cells were then starved to 2 hours in DMEM without FBS (“starve media”). Samples containing exemplary compounds were prepared in DMEM without FBS and included 5 ng/mL HGF protein (“treatment media”). A control curve was also prepared for each plate using HGF concentrations of 0, 5, 10, and 20 ng/mL. Starve media was replaced with treatment media and cells were incubated for 24 hours at 37° C. and 5% CO2.
After incubation, cells were fixed by replacing treatment media with cold ethanol and incubating for 20 minutes at 4° C. Cells were then rehydrated by washing with PBS and then with stain solution (fluorescent wheat germ agglutinin; WGA488 at 20 μg/mL in PBS). Cells were incubated with stain solution 30 minutes at room temperature after which stain solution was replaced with fresh PBS.
Fields of cells were imaged using an iCyte high content imager in the green wavelength. Images were converted to binary and analyzed for particle size and particle count. For the purpose of analysis, an individual cell touching no other cells or separated colonies of cells were identified as particles, and particle counts were normalized by the total signal area to account for differences in cell number. […] Compound potency was assessed by statistical increase in normalized particle count compared to HGF treatment alone.

[2] = target: T1, HGF/MET system (Homo sapiens, UniProt P08581+P14210); assay: Phospho-MET ELISA; format: cell-based; design: key: − indicates that the compound failed to significantly augment MET phosphorylation; + indicates maximum potency at or above 100 nM; ++ indicates maximum potency at or above 10 nM; +++ indicates maximum potency at or above 1 nM; ++++ indicates maximum potency at or above 0.1 nM; settings: HEK293 cells, 1 ng/mL recombinant HGF, 15 minutes, pMET ELISA
T1 construct: HEK293 cells were prepared by passage into 6-well multi-plates; endogenous in cells; host or cells: HEK293
Experimental: Compounds were screened for potency towards the HGF/MET system using phospho-MET (pMET) ELISA kits (Cell Signaling). pMET levels were detected in samples having low (1 ng/mL) and high (10 ng/mL) concentrations of HGF.
HEK293 cells were prepared by passage into 6-well multi-plates and grown at 37° C. at 5% CO2 in DMEM+10% FBS until approximately 90% confluent. Cells were then starved for at least 8 hours in serum-free growth media.
Exemplary compounds were prepared in DMEM+0.1% FBS, diluted and added to treatment media with 1 ng/mL recombinant HGF protein (R&D Systems). Cells were incubated in triplicate at 37° C. and 5% CO2 for 15 minutes. Samples were then treated with 180 μL ice-cold RIPA (radioimmunoprecipitation assay) buffer and cells were lysed on ice for 15 minutes. Lysates were cleared by centrifugation at 16,000-g for 15 minutes and the supernatant was retained. Samples were normalized using a BCA assay of lysates to determine protein concentrations across the samples.
Between 50 and 100 μg total protein lysate was loaded into ELISA wells in pMET Sandwich ELISA kit (Cell Signaling Catalog #7227C), ensuring equal protein load in each well. The ELISA was processed according to manufacturer's instructions. After color developed, absorbance was read on an optical plate reader at 450 nm.
Potency measurements were determined using peak efficacy by scaling test compound dose treatments along a scale of 1-10 between 1 ng/mL and 10 ng/mL HGF doses according to the following formula: […]
where y is the normalized data-point, x is the raw data point, A is the mean HGF at 1 ng/mL, and B is the mean HGF at 10 ng/mL.

[3] = Turbidimetric solubility assay; format: physicochemical; settings: aqueous buffer, kinetic from dmso stock, PBS, 37° C., absorbance 620 nm
Experimental: Aqueous solubility is a critical drug property that helps to predict bioavailability. Generally, compounds with aqueous solubility <100 μg/ml are poor drugs.
To assess a compound's solubility by turbidity, test compounds were first dissolved in organic solvent (DMSO) at a concentration of 10 mM. This compound solution was then diluted in aqueous solvent (PBS) in a dilution series from […] in a 96-well assay plate. Solutions were incubated at 37° C. for 2 hours.
In wells with test compounds over their solubility limit, the compound will precipitate, effectively blocking the passage of light and thus increasing the absorbance signal of UV light at a wavelength of 620 nm. Compounds were considered insoluble at a tested concentration if turbidity raises the absorbance more than 10% above control reads.

[4] = Parallel artificial membrane permeability assay (PAMPA); format: in vitro ADME; settings: PBS, room temperature
Experimental: Bioavailable drugs must permeate the cellular membranes of the lining of the digestive tract. To estimate the penetrability of exemplary compounds, the in vitro parallel artificial membrane permeability assay (PAMPA) was utilized.
Test compounds must have a standard curve in the final read plate to determine partitioned concentration of each drug. A 6-point standard curve was prepared for each compound from 0 to 200 μM in phosphate-buffered saline (PBS).
Test compound solution (300 μL in PBS) was added to the donor (bottom) well of the PAMPA plate in 5 replicates and PBS vehicle (200 μL) was added to the acceptor (top) wells of appropriate wells to match the loading of the donor plate. The bottom and top of the PAMPA plates were then sandwiched together. The PAMPA plates were then incubated at room temperature for 5 hours. After incubation, 150 μL of donor solution was added to a UV compatible plate containing the corresponding standard curve. 150 μL of acceptor well solution was added adjacent to the corresponding standard curve and donor well samples for that compound. The plate was then read using a UV plate reader.
Permeability and membrane retention were then calculated based on the following formulas:
Permeability (cm/s): (Pe)(cm/s)={−ln [1−CA(t)/Ceq]}/[A*(1/VD+1/VA)*t] (equation 1) • where: • A=filter area (0.3 cm^2); • VD=donor well volume (0.3 mL); • VA=acceptor well volume (0.2 mL); • t=incubation time (seconds); • CA(t)=compound concentration in acceptor well at time t; • CD(t)=compound concentration in donor well at time t; and • Ceq=[CD(t)*VD+CA(t)*VA]/(VD+VA).
Membrane Retention (R)=1−[CD(t)*VD+CA(t)*VA]/(C0*VD) (equation 2) • where: • CD(t), VD, CA(t), and VA are as defined for equation 1, and • C0=initial concentration in donor well (200 uM).

[5] = system: HepG2 cells; assay: Cytotoxicity assay (LDH release); format: cell-based; settings: 48 hours, 0.1 to 100 μM
Experimental: This experiment was designed to obtain a preliminary assessment of cytotoxicity.
HepG2 cells were plated in 96-well cell culture plates and allowed to attach overnight at 37° C., 5% CO2 in EMEM+10% FBS. Treatments were made in complete media (EMEM+10% FBS) and included a dilution series of test compounds from 0.1 to 100 μM. Known cytotoxin cerivastatin was used as a positive assay control and prepared at a final concentration of 0.5 μM.
Growth media was replaced with treatment media (EMEM+10% FBS containing test compound dissolved in DMSO) and cells were incubated with test compounds for 48 hours. At the end of the incubation period, supernatant media from each well was transferred to a new plate and LDH assay working solution was added. LDH assay solution undergoes a colorimetric reaction in proportion to the amount of lactate dehydrogenase (an intracellular protein that was only found in the media in the presence of lysed cells) in the media. Color reaction was quantified by measurement of absorbance at a wavelength of 490 nm.
The signal range of the assay was determined by no manipulation in a negative control treatment and full lysis of all cells in a lysis control sample. Compounds that increase the level of cytotoxicity more than 20% above negative control samples were considered cytotoxic in this assay.

T1 sequence (P08581 308-1390 limits assumed): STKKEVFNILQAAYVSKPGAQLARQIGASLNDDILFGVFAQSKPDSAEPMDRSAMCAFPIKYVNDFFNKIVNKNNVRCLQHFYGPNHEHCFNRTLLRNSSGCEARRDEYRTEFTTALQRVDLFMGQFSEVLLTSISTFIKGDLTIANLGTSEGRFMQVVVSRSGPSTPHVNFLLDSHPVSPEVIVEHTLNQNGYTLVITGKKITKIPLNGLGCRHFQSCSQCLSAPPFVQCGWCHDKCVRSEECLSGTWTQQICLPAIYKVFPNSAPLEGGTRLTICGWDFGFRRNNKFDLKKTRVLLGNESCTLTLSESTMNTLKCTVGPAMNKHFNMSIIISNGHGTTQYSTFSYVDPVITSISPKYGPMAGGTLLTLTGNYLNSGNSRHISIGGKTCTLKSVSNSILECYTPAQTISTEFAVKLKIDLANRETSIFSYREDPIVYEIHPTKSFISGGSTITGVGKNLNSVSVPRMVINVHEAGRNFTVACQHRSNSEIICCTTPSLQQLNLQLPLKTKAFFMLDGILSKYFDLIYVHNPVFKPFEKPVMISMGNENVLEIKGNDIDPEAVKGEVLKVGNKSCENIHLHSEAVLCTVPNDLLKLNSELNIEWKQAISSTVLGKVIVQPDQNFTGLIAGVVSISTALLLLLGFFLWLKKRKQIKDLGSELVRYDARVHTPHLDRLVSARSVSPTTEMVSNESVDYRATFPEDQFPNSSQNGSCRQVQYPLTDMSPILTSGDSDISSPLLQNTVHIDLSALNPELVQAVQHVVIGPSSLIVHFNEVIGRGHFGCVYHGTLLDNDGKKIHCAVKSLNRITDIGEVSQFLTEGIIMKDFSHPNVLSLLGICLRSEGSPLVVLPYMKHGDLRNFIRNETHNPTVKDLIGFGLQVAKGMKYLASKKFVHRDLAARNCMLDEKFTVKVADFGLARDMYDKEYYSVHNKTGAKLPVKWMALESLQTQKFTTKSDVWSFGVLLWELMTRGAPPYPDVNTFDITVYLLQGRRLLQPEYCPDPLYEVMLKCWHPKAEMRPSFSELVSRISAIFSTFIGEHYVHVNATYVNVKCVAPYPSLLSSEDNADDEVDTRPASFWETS
T1 sequence (P14210 32-494 limits assumed): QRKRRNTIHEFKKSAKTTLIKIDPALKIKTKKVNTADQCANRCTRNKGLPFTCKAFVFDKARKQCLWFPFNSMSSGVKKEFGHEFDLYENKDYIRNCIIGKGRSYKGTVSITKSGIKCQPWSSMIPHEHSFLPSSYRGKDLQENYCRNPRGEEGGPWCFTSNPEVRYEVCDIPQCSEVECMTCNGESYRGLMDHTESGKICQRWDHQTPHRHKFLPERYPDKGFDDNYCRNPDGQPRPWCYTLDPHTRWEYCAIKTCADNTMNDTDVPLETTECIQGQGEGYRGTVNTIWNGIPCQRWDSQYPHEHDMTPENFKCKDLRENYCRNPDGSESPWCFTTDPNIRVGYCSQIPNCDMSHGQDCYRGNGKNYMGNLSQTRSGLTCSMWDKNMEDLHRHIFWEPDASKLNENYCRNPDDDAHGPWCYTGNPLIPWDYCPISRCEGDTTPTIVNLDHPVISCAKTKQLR

Row | Compound | Potency (cell scattering) [1] | Potency (augmentation of MET phosphorylation) [2] | solubility at 2 h [3] [µM] | Permeability ([4]; 5 hours) | Cytotoxicity [5] | Papp at 5 h, 200 µM [4] [×10⁻⁶ cm/s]
1 | CCC(C)CN1CC2N(C(=O)c3ccc(O)cc3)CCC(=O)N2[C@@H](C)C1=O (some centres unmarked) [Compound 3a] | − | − | > 300 | +++ (+++ indicates permeability below 2 × 10^−6 cm/s) |  | 
2 | CCC(C)CN1CC2N(C(=O)c3ccc(O)nc3)CCC(=O)N2[C@@H](C)C1=O (some centres unmarked) [Compound 4a] | + (+ indicates maximum potency at or above 100 nM) | + (+ indicates maximum potency at or above 100 nM) | > 300 |  | ++++ (++++ indicates non-toxic at 100 μM) | > 10
3 | CCC(C)N1CC2N(Cc3ccc(O)cc3)CCC(=O)N2CC1=O (centres unmarked) [Compound 9] | − | − | > 300 |  | ++++ (++++ indicates non-toxic at 100 μM) | > 2
4 | C=CCCN1CC2N(Cc3ccc(OC(F)F)cc3)CCC(=O)N2C(C)C1=O (centres unmarked) [Compound 39] | − | − | > 300 |  |  | 
5 | CCCCN1CC2N(Cc3ccc(OC(F)F)cc3)CCC(=O)N2C(C)C1=O (centres unmarked) [Compound 41] | − | − | > 300 |  |  | 
6 | CCC(C)CN1CC2N(Cc3ccc(F)cc3)CCC(=O)N2C(C)C1=O (centres unmarked) [Compound 42] | +++ (+++ indicates maximum potency at or above 1 nM) | ++++ (++++ indicates maximum potency at or above 0.1 nM) | > 300 |  | ++++ (++++ indicates non-toxic at 100 μM) | > 2
7 | CCC(C)CN1CC2N(Cc3ccc(C(F)(F)F)c(Cl)c3)CCC(=O)N2C(C)C1=O (centres unmarked) [Compound 43] | − | − | > 100 |  |  | 
8 | CCC(C)CN1CC2N(Cc3c[nH]c4ccccc34)CCC(=O)N2C(C)C1=O (centres unmarked) [Compound 44] | − | − | > 100 |  |  | 
9 | CC1C(=O)N(CCC2CCCC2)CC2N(Cc3ccc(F)cc3)CCC(=O)N12 (centres unmarked) [Compound 46, 8-(2-cyclopentylethyl)-1-(4-fluorobenzyl)-6-methylhexahydro-4H-pyrazino[1,2-c]pyrimidine-4,7(6H)-dione] | − | − | > 300 |  |  | 
10 | CCC(C)CN1CC2N(Cc3ccc(OC(F)F)cc3)CCC(=O)N2C(CC(=O)O)C1=O (centres unmarked) [Compound 49, 2-(1-(4-(difluoromethoxy)benzyl)-8-(2-methylbutyl)-4,7-dioxooctahydro-2H-pyrazino[1,2-a]pyrimidin-6-yl)acetic acid] | ++++ (++++ indicates maximum potency at or above 0.1 nM) | ++++ (++++ indicates maximum potency at or above 0.1 nM) | > 300 |  | ++++ (++++ indicates non-toxic at 100 μM) | > 2
11 | CCC(C)CN1CC2N(Cc3ccc(OC(F)F)cc3)CCC(=O)N2C(CC(N)=O)C1=O (centres unmarked) [Compound 50, 2-(1-(4-(difluoromethoxy)benzyl)-8-(2-methylbutyl)-4,7-dioxooctahydro-2H-pyrazino[1,2-a]pyrimidin-6-yl)acetamide] | − | − | > 300 |  |  | 
12 | CC1C(=O)N(CCC2CCC2)CC2N(Cc3ccc(C(F)(F)F)c(Cl)c3)CCC(=O)N12 (centres unmarked) [Compound 51] | +++ (+++ indicates maximum potency at or above 1 nM) | +++ (+++ indicates maximum potency at or above 1 nM) | > 100 |  | +++ (+++ indicates non-toxic at 10 μM) | < 2
